Test results from patent publication US20220009945A1, “NOVEL UREA 6,7-DIHYDRO-4H-THIAZOLE[5,4-C]PYRIDINES ACTIVE AGAINST THE HEPATITIS B VIRUS (HBV)” (AICURIS GMBH & CO. KG, priority 2018, published 2022).
Where a name gives a salt, the structure may show the parent alone.

Tested on: HBV
Conditions: Hepatitis B virus, HePAD38, 144 h, read-out: Cell Activity

Row | Compound | EC50
1 | Nc1nc2c(s1)CN(C(=O)Nc1ccc(F)c(Cl)c1)CC2 [Example 1, 2-amino -N-(3-chloro-4-fluorophenyl)-4H,5H,6H,7H-[1,3] thiazolo[5,4-c]pyridine-5-carboxamide] | < 1000 nM
2 | Cc1cc(NC(=O)N2CCc3nc(NCC4(O)CCC4)sc3C2)ccc1F [Example 13, N-(4-fluoro-3-methylphenyl)-2-{[(1-hydroxycyclobutyl)methyl]amino}-4H,5H,6H,7H-[1,3]thiazolo[5,4-c]pyridine-5-carboxamide] | < 1000 nM
3 | O=C(Nc1ccc(F)c(Cl)c1)N1CCc2nc(NCC3(O)CC3)sc2C1 [Example 12, N-(3-chloro-4-fluorophenyl)-2-{[(1-hydroxycyclopropyl)methyl]amino}-4H,5H,6H,7H-[1,3]thiazolo[5,4-c]pyridine-5-carboxamide] | < 1000 nM
4 | CN1CCC(C(=O)Nc2nc3c(s2)CN(C(=O)Nc2ccc(F)c(Cl)c2)CC3)CC1 [Example 8, N-{5-[(3-chloro-4-fluorophenyl)carbamoyl]-4H,5H,6H,7H-[1,3]thiazolo[5,4-c]pyridin-2-yl}-1-methylpiperidine-4-carboxamide formate] | < 1000 nM
5 | O=C(Nc1nc2c(s1)CN(C(=O)Nc1ccc(F)c(Cl)c1)CC2)C1CCOCC1 [Example 11, N-(3-chloro-4-fluorophenyl)-2-(oxane-4-amido)-4H,5H,6H,7H-[1,3]thiazolo[5,4-c]pyridine-5-carboxamide] | < 1000 nM
6 | C[C@H]1Cc2nc(NC(=O)[C@H]3C[C@H](O)C3)sc2CN1C(=O)Nc1ccc(F)c(Cl)c1 [Example 21, (6S)-N-(3-chloro-4-fluorophenyl)-6-methyl-2-[(1r,3r)-3-hydroxycyclobutaneamido]-4H,5H,6H,7H-[1,3]thiazolo[5,4-c]pyridine-5-carboxamide] | < 1000 nM
7 | O=C(Nc1ccc(F)c(Cl)c1)N1CCc2nc(N[C@H]3C[C@H](O)C3)sc2C1 [Example 2, N-(3-chloro-4-fluorophenyl)-2-{[(1r,3r)-3-hydroxycyclobutyl]amino}-4H,5H,6H,7H-[1,3]thiazolo[5,4-c]pyridine-5-carboxamide] | < 1000 nM
8 | O=C(Nc1ccnc(C(F)F)c1)N1CCc2nc(N[C@H]3C[C@H](O)C3)sc2C1 [Example 16, N-[2-(difluoromethyl)pyridin-4-yl]-2-{[(1r,3r)-3-hydroxycyclobutyl]amino}-4H,5H,6H,7H-[1,3]thiazolo[5,4-c]pyridine-5-carboxamide] | 1000 to 10000 nM
9 | O=C(Nc1ccc(F)c(Cl)c1)N1CCc2nc(NS(=O)(=O)C3CC3)sc2C1 [Example 17, N-(3-chloro-4-fluorophenyl)-2-cyclopropanesulfonamido-4H,5H,6H,7H-[1,3]thiazolo[5,4-c]pyridine-5-carboxamide] | 1000 to 10000 nM
10 | O=C(Nc1ccc(F)c(Cl)c1)N1CCc2nc(NC3CCOC3)sc2C1 (stereo not drawn) [Example 4, N-(3-chloro-4-fluorophenyl)-2-[(oxolan-3-yl)amino]-4H,5H,6H,7H-[1,3]thiazolo[5,4-c]pyridine-5-carboxamide] | < 1000 nM
11 | O=C(Nc1nc2c(s1)CN(C(=O)Nc1ccc(F)c(Cl)c1)CC2)C1CCC(O)CC1 (stereo not drawn) [Example 15, N-(3-chloro-4-fluorophenyl)-2-(4-hydroxycyclohexaneamido)-4H,5H,6H,7H-[1,3]thiazolo[5,4-c]pyridine-5-carboxamide] | < 1000 nM
12 | O=C(Nc1ccc(F)c(Cl)c1)N1CCc2nc(NC(=O)[C@H]3C[C@H](O)C3)sc2C1 [Example 20, N-(3-chloro-4-fluorophenyl)-2-[(1r,3r)-3-hydroxycyclobutaneamido]-4H,5H,6H,7H-[1,3]thiazolo[5,4-c]pyridine-5-carboxamide] | < 1000 nM
13 | O=C(Nc1ccc(F)c(Cl)c1)N1CCc2nc(N[C@H]3CC[C@@H](O)CC3)sc2C1 [Example 7, N-(3-chloro-4-fluorophenyl)-2-{[(1s,4s)-4-hydroxycyclohexyl]amino}-4H,5H,6H,7H-[1,3]thiazolo[5,4-c]pyridine-5-carboxamide] | < 1000 nM
14 | O=C(Nc1ccc(F)c(Cl)c1)N1CCc2nc(NCC3CCOC3)sc2C1 (stereo not drawn) [Example 5, N-(3-chloro-4-fluorophenyl)-2-{[(oxolan-3-yl)methyl]amino}-4H,5H,6H,7H-[1,3]thiazolo [5,4-c]pyridine-5-carboxamide] | < 1000 nM
15 | N#Cc1cc(NC(=O)N2CCc3nc(NCC4(O)CCC4)sc3C2)ccc1F [Example 14, N-(3-cyano-4-fluorophenyl)-2-{[(1-hydroxycyclobutyl)methyl]amino}-4H,5H,6H,7H-[1,3]thiazolo[5,4-c]pyridine-5-carboxamide] | < 1000 nM
16 | O=C(Nc1ccc(F)c(Cl)c1)N1CCc2nc(NCC3(O)CC(F)(F)C3)sc2C1 [Example 9, N-(3-chloro-4-fluorophenyl)-2-{[(3,3-difluoro-1-hydroxycyclobutyl)methyl]amino}-4H,5H,6H,7H-[1,3]thiazolo[5,4-c]pyridine-5-carboxamide] | < 1000 nM
17 | O=C(Nc1ccc(F)c(Cl)c1)N1CCc2nc(NCC3(O)CCC3)sc2C1 [Example 6, N-(3-chloro-4-fluorophenyl)-2-{[(1-hydroxycyclobutyl)methyl]amino}-4H,5H,6H,7H-[1,3]thiazolo[5,4-c]pyridine-5-carboxamide] | < 1000 nM
18 | O=C(Nc1ccnc(C(F)F)c1)N1CCc2nc(NCC3(O)CCC3)sc2C1 [Example 19, N-[2-(difluoromethyl)pyridin-4-yl]-2-{[(1-hydroxycyclobutyl)methyl]amino}-4H,5H,6H,7H-[1,3]thiazolo[5,4-c]pyridine-5-carboxamide] | 1000 to 10000 nM
19 | CC1(S(=O)(=O)Nc2nc3c(s2)CN(C(=O)Nc2ccc(F)c(Cl)c2)CC3)CC1 [Example 18, N-(3-chloro-4-fluorophenyl)-2-(1-methylcyclopropanesulfonamido)-4H,5H,6H,7H-[1,3]thiazolo[5,4-c]pyridine-5-carboxamide] | 1000 to 10000 nM
20 | O=C(Nc1nc2c(s1)CN(C(=O)Nc1ccc(F)c(Cl)c1)CC2)C1CCOC1 (stereo not drawn) [Example 10, N-(3-chloro-4-fluorophenyl)-2-(oxolane-3-amido)-4H,5H,6H,7H-[1,3]thiazolo[5,4-c]pyridine-5-carboxamide] | < 1000 nM
21 | O=C(Nc1ccc(F)c(Cl)c1)N1CCc2nc(NC3(CO)CCC3)sc2C1 [Example 3, N-(3-chloro-4-fluorophenyl)-2-{[1-(hydroxymethyl)cyclobutyl]amino}-4H,5H,6H,7H-[1,3]thiazolo[5,4-c]pyridine-5-carboxamide] | < 1000 nM
